From PMC6832503, “Synthesis of Novel Nicotinic Ligands with Multimodal Action: Targeting Acetylcholine α4β2, Dopamine and Serotonin Transporters” (Molecules, 2019)
Counter-ions that a name gives are not always drawn.

What was measured:
h-DAT = target: T1, h-DAT (Homo sapiens, UniProt Q01959); assay: [3H]-WIN 35,428 competitive binding on h-DAT membranes (CHO-K1)
T1 construct: purchased Perkin-Elmer RBHDATM400UA; host or cells: CHO-K1 membranes
Procedure: (§1) To evaluate the affinity (Ki) of our compounds, competitive binding assays in α4β2 nAChR using [^3H]-cytisine as radioligand ([^3H]-Cyt) was measured. Binding experiments were carried out on whole rat brain synaptosomes. To evaluate the affinity on the monoamine transporters SERT and DAT, binding affinity (Ki) was determined using [^3H]-WIN 35,428 ([^3H]-WIN) for h-DAT and [^3H]-paroxetine ([^3H]-parox) for h-SERT as specific radioligands for the corresponding monoamine transporters respectively. Competitive binding studies were carried out on homogenized membranes prepared from the human clonal cell line HEK293 for h-SERT (Perkin Elmer) and CHO-K1 for h-DAT (Perkin Elmer). […].
The cellular background CHO-K1 with 400 μL of h-DAT (Code RBHDATM400UA, Perkin-Elmer, Santiago, Chile) was diluted in 12 Eppendorf tubes, with a storage buffer solution of Tris-HCl 50 mM (pH 7.4), EDTA 0.5 mM, MgCl2 10 mM and 10% sucrose, obtaining a final volume of 260–340 μL stored at −80 °C [46]. Each Eppendorf tube was incubated in 50 mM Tris-HCl buffer solution (pH 7.4), 100 mM NaCl, the drugs under study were using increasing concentrations, with 1 nM of [^3H]-WIN 35,428 (specific activity 82.6 Ci/mmol, Code NET1033025UC, Perkin-Elmer, Santiago, Chile) with a final volume of 250 μL. Non-specific binding was determined using 10 mM methylphenidate.
After 120 min at 4 °C, the incubation was stopped by rapid filtration on a Whatman GF/C filter preabsorbed in 0.5% polyethylenimine (PEI), washed with cold working buffer solution, 3 x 3mL, filtered, and scintillation liquid was added. The radioactivity was measured by liquid scintillation spectrometry (MicroBeta 2450 microplate counter, PerkinElmer, Santiago, Chile). The data were plotted by non-linear regression variable inhibitor-response dose (Prism 5.01, GraphPad, San Diego, CA, USA) to estimate the IC50 and Ki values for the tested compounds using the Cheng-Prusoff equation.

α4β2 nAChR = target: T2, α4β2 nAChR (Rattus norvegicus, UniProt P09483+P12390); assay: [3H]-cytisine competitive binding on whole rat brain synaptosomes
T2 construct: the rat complete brain P1 fraction (occupying 2 mg of wet tissue for each assay); from tissue; host or cells: whole rat brain, synaptosome pellet (fraction P1)
Procedure: as §1
Preparation of the synaptosome fraction: the rats were sacrificed by decapitation, and their brain removed without dissecting. Brain tissue was homogenized in 40 volumes using a buffer of 0.32 M sucrose at pH 7.4, containing 1 mM EDTA, 0.1 mM PMSF, and 0.01% of cold and freshly prepared NaN3, through a glass homogenizer and teflon stem. The homogenate was distributed in Eppendorf tubes and centrifuged at 20,000 g for 30 min at 4 °C to produce a synaptosome pellet (fraction P1) which is used for the binding assay. This fraction P1 was subsequently stored at −80 °C.
Binding assay of [^3H]-cytisine in α4β2 nAChR cells: the rat complete brain P1 fraction (occupying 2 mg of wet tissue for each assay) was incubated in 2500 μL of 20 mM HEPES buffer solution at pH 7.4 containing 118 mm NaCl, 4.8 mm KCl, 2.5 mm CaCl2, 200 mm Tris, 0.1 mm PMSF and 0.01% NaN3 with or without the different drugs under study at different concentrations, in the presence of 1 nM of [^3H]-cytisine (specific activity 35.8 Ci/mmol, Code NET1054025UC, Perkin-Elmer, Santiago, Chile) in a final volume of 250 μL. Non-specific binding was determined using 2.5 mM of cytisine. Incubation was performed for 30 min at room temperature and then for 60 min at 4 °C. Incubation was stopped by rapid filtration in Whatman GF/C filter preabsorbed in 0.5% polyethylenimine, which were washed with cold and fresh working buffer 7 times, then dried, and adding scintillation liquid, left for the whole night in Eppendorf tubes in order to measure later the radioactivity by liquid scintillation spectrometry (MicroBeta 2450 microplate counter, PerkinElmer, Santiago, Chile). The data were plotted by non-linear regression variable inhibitor-response dose (Prism 5.01, GraphPad, San Diego, CA, USA) to obtain the IC50 and Ki values of the tested compounds using the Cheng-Prusoff equation.

h-SERT = target: T3, h-SERT (Homo sapiens, UniProt P31645); assay: [3H]-paroxetine radioligand binding on h-SERT membranes (HEK293); conditions: for % radioligand binding at 25 µM / % of Binding [3H]-Paroxetine h-SERT: 25 μM compound, 2 nM [3H]-paroxetine, HEK293 h-SERT membranes; for affinity for h-SERT (displacement of [3H]-paroxetine from the central binding site): result in words
T3 construct: purchased Perkin-Elmer RBHSTM400UA; host or cells: HEK293 membranes
Procedure: as §1
The cellular background HEK293 containing 400 μL of h-SERT (Code RBHSTM400UA, Perkin-Elmer, Santiago, Chile) was diluted in 12 Eppendorf tubes, containing a storage buffer solution of Tris-HCl 50 mM (pH 7.4), EDTA 0.5 mM, MgCl2 10 mM and 10% sucrose, obtaining a final volume between 260 and 340 μL, which was finally stored at −80 °C [46].
Each Eppendorf tube was incubated with 50 mM Tris HCl buffer (pH 7.4), 120 mM NaCl, 5 mM KCl and the drugs under study using increasing concentrations, in presence of 2 nM of [^3H]-paroxetine (specific activity 23.1 Ci/mmol, Code NET86925UC, Perkin-Elmer, Santiago, Chile) with a final volume of 250 μL [46]. Non-specific binding was determined using […] fluoxetine. After 30 min at 27 °C, the incubation was stopped by rapid filtration on a Whatman GF/C filter preabsorbed in 0.5% polyethylenimine (PEI), washed with cold working buffer solution, 3 × 3mL, filtered, and scintillation liquid was added. The radioactivity was measured by liquid scintillation spectrometry (MicroBeta 2450 microplate counter, PerkinElmer, Santiago, Chile). The data were represented in a bar graph using 25 μM concentration for both, the compound under study and fluoxetine as the non-specific ligand. Each bar represents the mean ± S.E.M obtained in the experiments carried out in triplicates.

Row | Structure (SMILES) | Ki (µM) h-DAT (h-DAT) | Ki (α4β2 nAChR) [µM] | affinity for h-SERT (displacement of [3H]-paroxetine from the central binding site) (h-SERT) | Ki (µM) α4β2 nAChR (α4β2 nAChR) | % radioligand binding at 25 µM (h-SERT; […]) [%] | also measured
1 | CN1CCC[C@H]1COC(=O)Cc1ccc(Cl)cc1Cl (as salt: hydrochloride) | – | – | – | – | – | melting point: 179.1 to 180.5 °C
2 | CN1CCC[C@H]1COC(=O)Cc1ccc(Cl)c(Cl)c1 (as salt: hydrochloride) | – | – | – | – | – | melting point: 183.5 to 184.8 °C
3 | CN1CCC[C@H]1COC(=O)c1cccc(Cl)c1 (as salt: hydrochloride) [Compound 3, (S)-(1-Methyl-2-pyrrolidinyl)methyl 3-chlorobenzoate] | – | – | – | – | – | melting point: 120.5 to 121.9 °C
4 | CN1CCCC1CCOC(=O)c1ccccc1 (racemic) [Compound 7, (±)-2-(1-Methyl-2-pyrrolidinyl)ethyl benzoate] | no affinity and N.E | 1.79 ± 0.378 | no affinity | – | – | % radioligand binding at 25 µM (h-SERT; values above 100 = increased radioligand binding): 100 ± 0.5%
5 | CN1CCCC1CCOC(=O)c1cccc(F)c1 (racemic) [Compound 8, (±)-2-(1-Methyl-2-pyrrolidinyl)ethyl 3-fluorobenzoate] | N.E | – | – | N.E | 140 ± 2 | % of Binding [3H]-Paroxetine h-SERT (h-SERT; […]): increase in the binding
6 | CN1CCCC1CCOC(=O)c1cccc(Cl)c1 (racemic) [Compound 9, (±)-2-(1-Methyl-2-pyrrolidinyl)ethyl 3-chlorobenzoate] | N.E | 3.46 ± 0.36 | – | – | 108 ± 1.2 | –
7 | Cc1ccccc1C(=O)OCCC1CCCN1C (racemic) [Compound 11, (±)-2-(1-Methyl-2-pyrrolidinyl)ethyl 2-methylbenzoate] | did not display affinity | – | did not display affinity | did not display affinity | – | –
8 | Cc1ccc(C(=O)OCCC2CCCN2C)cc1 (racemic) [Compound 12, (±)-2-(1-Methyl-2-pyrrolidinyl)ethyl 4-methylbenzoate] | did not display affinity | – | did not display affinity | did not display affinity | – | –
9 | CN1CCCC1CCOC(=O)Cc1ccccc1 (racemic) [Compound 16, (±)-2-(-1-Methyl-2-pyrrolidinyl)ethyl 2-phenylacetate] | – | – | – | N.E | 92 ± 0.3 | Ki (h-DAT): 22.7 ± 7.1 µM
10 | CN1CCCC1CCOC(=O)Cc1ccc(Cl)c(Cl)c1 (racemic) [Compound 17, (±)-2-(-1-Methyl-2-pyrrolidinyl)ethyl 2-(3,4-dichlorophenyl)acetate] | – | – | – | N.E | 78 ± 0.6 | Ki (h-DAT): 3.32 ± 0.923 µM
11 | CN1CCCC1CCOC(=O)c1ccc2ccccc2c1 (racemic) [Compound 19, (±)-2-(1-Methyl-2-pyrrolidinyl)ethyl 2-naphthoate] | – | – | – | N.E | 126 ± 1.9 | Ki (h-DAT): 44.2 ± 8.12 µM; % of Binding [3H]-Paroxetine h-SERT (h-SERT; […]): increase in the binding
12 | CN1CCCC1CCOC(=O)C(c1ccccc1)c1ccccc1 (racemic) [Compound 21, (±)-2-(-1-Methyl-2-pyrrolidinyl)ethyl 2,2-diphenylacetate] | – | 0.113 ± 0.037 | – | – | 86.5 ± 1.5 | Ki (h-DAT): 0.075 ± 0.009 µM
13 | CN1CCC[C@H]1COC(=O)c1ccccc1 [Compound 1, (S)-(1-Methyl-2-pyrrolidinyl)methyl Benzoate] | N.E | 0.023 ± 0.006 | – | – | 86 ± 0.6 | –
14 | CN1CCC[C@H]1COC(=O)c1cccc(F)c1 [Compound 2, (S)-(1-Methyl-2-pyrrolidinyl)methyl 3-fluorobenzoate] | N.E | 0.094 ± 0.002 | – | – | 123 ± 1.2 | % of Binding [3H]-Paroxetine h-SERT (h-SERT; […]): increase in the binding
15 | CN1CCC[C@H]1COC(=O)c1cccc(Cl)c1 [Compound 3, (S)-(1-Methyl-2-pyrrolidinyl)methyl 3-chlorobenzoate] | lacks affinity and N.E | 0.009 ± 0.001 | lacks affinity | – | 87.5 ± 1.5 | –
16 | CN1CCC[C@H]1COC(=O)c1cccc(Br)c1 [Compound 4, (S)-(1-Methyl-2-pyrrolidinyl)methyl 3-bromobenzoate] | N.E | 0.132 ± 0.038 | – | – | 137 ± 1.2 | % of Binding [3H]-Paroxetine h-SERT (h-SERT; […]): increase in the binding
17 | Cc1ccccc1C(=O)OC[C@@H]1CCCN1C [Compound 5, (S)-(1-Methyl-2-pyrrolidinyl)methyl 2-methylbenzoate] | did not display affinity | – | did not display affinity | did not display affinity | – | –
18 | Cc1ccc(C(=O)OC[C@@H]2CCCN2C)cc1 [Compound 6, (S)-(1-Methyl-2-pyrrolidinyl)methyl 4-methylbenzoate] | did not display affinity | – | did not display affinity | did not display affinity | – | –
19 | CN1CCC[C@H]1COC(=O)c1ccc2ccccc2c1 [Compound 18, (S)-(1-Methyl-2-pyrrolidinyl)methyl 2-naphthoate] | – | 0.12 ± 0.037 | – | – | 117 ± 2.3 | Ki (h-DAT): 99.3 ± 1.41 µM; % of Binding [3H]-Paroxetine h-SERT (h-SERT; […]): increase in the binding
